Laboratory results published in patent US20220135663A1, “Method of treatment of Chronic Low Back Pain” (Pfizer Inc., priority 2019, published 2022).
“Also recorded” adds a separate entry of the source.

Key:
[1] = system: adult patients with chronic low back pain; experiment: Study 1059: adverse events and adjudicated joint safety; format: in vivo, human; conditions: for incidence of discontinuations from treatment due to an adverse event / incidence of serious adverse events / overall incidence of adverse events: 56-week treatment period
From the text: For subjects who are identified with a possible or probable joint event (i.e., rapidly progressive osteoarthritis, subchondral insufficiency fractures, spontaneous osteonecrosis of the knee (SPONK), primary osteonecrosis or pathological fracture) and subjects undergoing total joint replacement for any reason, all images and other source documentation may be provided to the blinded Adjudication Committee for review and adjudication of the event. The Adjudication Committee's assessment of the event may represent the final classification of the event.
(§1) Patients were also required to have documented history of previous inadequate treatment response to at least 3 different categories of agents commonly used and generally considered effective for the treatment of chronic low back pain. Patients were required to discontinue all medications for the treatment of chronic low back pain during the primary efficacy assessment period (up to Week 16).

[2] = system: OA; conditions: tanezumab 2.5-5 mg combined, N = 2000; cited from earlier work
[3] = system: subjects with chronic low back pain (CLBP); conditions: in vivo
Method: This second study (termed “Study 1063) was a randomized, double-blind, active-controlled, multicenter, parallel-group Phase 3 study in Japan to evaluate the safety and efficacy of tanezumab when administered by SC injection for up to 56 weeks in subjects with chronic low back pain (CLBP). […] Patients were also required to be experiencing some benefit from their current stable dose regimen of oral therapy of NSAID (celecoxib 200 mg/day [100 mg BID], loxoprofen 120 to 180 mg/day or meloxicam 5 to 15 mg/day) treatment, but still required additional pain relief at screening. […] Patients with a diagnosis of osteoarthritis of the knee or hip as defined by the American College of Rheumatology combined clinical and radiographic criteria or who had Kellgren Lawrence Grade ≥2 radiographic evidence of hip osteoarthritis or Kellgren Lawrence Grade ≤3 radiographic evidence of knee osteoarthritis were excluded.
Treatment groups were as follows: 1. Tanezumab 5 mg SC and placebo for celecoxib BID; 2. Tanezumab 10 mg SC and placebo for celecoxib BID; 3. Placebo for tanezumab SC and celecoxib BID.
This study was designed with a total (post-randomization) duration of 80 weeks and consisted of three periods: (1) a Screening period (up to a maximum of 37 days), (2) a Double-blind Treatment period (56 weeks), and (3) a Safety Follow-up (24 weeks) Period (FIG. 8). The Screening Period included a Washout Period (lasting 2-32 days) if required, and an Initial Pain Assessment Period (IPAP) (5 days prior to Randomization/Baseline; minimum 4 days).
The Safety analysis set included all patients who received at least one dose of SC study treatment. This analysis set was primary for all safety endpoints, which were analyzed according to treatment received, and was labeled as the ‘Safety population’. In this study, the ITT and Safety analysis sets were identical.

[4] = system: subjects with chronic low back pain (CLBP); experiment: Study 1063, Phase 3 in Japan: efficacy (LBPI, RMDQ) in chronic low back pain; format: in vivo, human
Method: Patients received a total of seven SC injections, separated by 8 weeks (tanezumab or
Treatment groups were as follows: 1. […] Placebo for tanezumab SC and celecoxib BID.
The Intent-to-Treat (ITT) analysis set included all patients who were randomized and received at least one dose of SC study medication (either tanezumab or placebo). This analysis set was primary for all efficacy endpoints, which were analyzed according to randomization assignment, and was labeled as the ‘ITT population’.

[5] = target: T1, NGF (Homo sapiens, UniProt P01138); conditions: cited from earlier work
[6] = system: adult patients with chronic low back pain; experiment: Study 1059, Phase 3: efficacy (LBPI, RMDQ) in chronic low back pain; format: in vivo, human
Method: The Low Back Pain Intensity (LBPI) measure is assessed with an 11-point numeric rating scale ranging from 0 (no pain) to 10 (worst possible pain). The LBPI score can be the daily average LBPI score.
The Roland Morris Disability Questionnaire (RMDQ) is an index of how well subjects with low back pain are able to function with regard to daily activities (Roland M, Fairbank. The Roland-Morris Questionnaire and the Oswestry Disability Questionnaire. Spine. 2000; 25 (4)3115-3124). It is a low back pain-specific assessment of physical function with scores ranging from 0 to 24 (lower scores indicate better function).
as §1
Approximately 1800 patients were planned to be randomized initially in a 2:2:2:3 ratio to 1 of 4 following treatment groups:
1. Placebo administered SC at an 8-week interval plus placebo matching tramadol PR up to Week 16. At the Week 16 visit, patients in this group were switched in a blinded fashion in a 1:1 ratio to either tanezumab 5 mg or tanezumab 10 mg administered SC at an 8 week interval plus placebo matching tramadol PR to Week 56;
2. Tanezumab 5 mg SC administered at an 8-week interval plus placebo matching tramadol PR to Week 56;
3. Tanezumab 10 mg SC administered at an 8-week interval plus placebo matching tramadol PR to Week 56;
4. Oral tramadol PR 100-300 mg daily plus placebo administered SC at an 8-week interval to Week 56.
To achieve the initial randomization and intended re-randomization at Week 16 for placebo patients, a randomization ratio 1:1:2:2:3 for placebo→tanezumab 5 mg (at Week 16), placebo→tanezumab 10 mg (at Week 16), tanezumab 5 mg, tanezumab 10 mg, and tramadol PR was used at the beginning of the trial.
Table 2 summarizes the requirements for analgesic medication usage prior to Screening and the requirements for LBPI and Patient's Global Assessment (PGA) of CLBP. The current study enrolled patients who were more refractory to standard of care treatments for CLBP and had higher LBPI scores at Baseline.

[7] = target: T1, NGF; conditions: cell culture models; cited from earlier work
[8] = tanezumab 5-10 mg combined, N = 1008
[9] = 5 mg SC every 8 weeks, listed as Tan
[10] = 10 mg SC every 8 weeks, listed as Tan

T1 sequence (P01138 122-241): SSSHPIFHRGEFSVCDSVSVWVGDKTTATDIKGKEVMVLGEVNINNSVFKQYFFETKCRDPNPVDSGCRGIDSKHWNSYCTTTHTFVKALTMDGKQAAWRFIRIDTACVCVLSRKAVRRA

Substance: tanezumab: humanized IgG2 monoclonal antibody directed against human nerve growth factor (NGF); heavy chain SEQ ID NO: 9 or 11, light chain SEQ ID NO: 10
- incidence of adverse events of potential sympathetic dysfunction ([1]; 5 mg): 5.9%
- incidence of carpal tunnel syndrome ([1]; 5 mg): 1.0%
- incidence of hypoaesthesia ([1]; 5 mg): 3.0%
- incidence of composite joint safety endpoint ([1]; 5 mg SC every 8 weeks): 1.0%
- observation-time adjusted rate of composite joint safety endpoint ([1]; 5 mg SC every 8 weeks): 10.0 events/1000 patient-years
- patients adjudicated to normal progression of OA, number ([1]; 5 mg SC every 8 weeks): 1 patient
- patients with joint safety event adjudicated to RPOA Type 1 ([1]; 5 mg SC every 8 weeks): 1.0%
- patients with joint safety event adjudicated to RPOA Type 1, number ([1]; 5 mg SC every 8 weeks): 5 patients
- incidence of discontinuations from treatment due to an adverse event ([1]; 5 mg): 6.7%
- incidence of serious adverse events ([1]; 5 mg): 2.2%
- overall incidence of adverse events ([1]; 5 mg): 58.3%
- incidence of adverse events of potential sympathetic dysfunction ([1]; 10 mg): 6.4%
- incidence of carpal tunnel syndrome ([1]; 10 mg): 1.6%
- incidence of hypoaesthesia ([1]; 10 mg): 3.8%
- incidence of composite joint safety endpoint ([1]; 10 mg SC every 8 weeks): 2.6%
- observation-time adjusted rate of composite joint safety endpoint ([1]; 10 mg SC every 8 weeks): 25.7 events/1000 patient-years
- patients adjudicated to normal progression of OA, number ([1]; 10 mg SC every 8 weeks): 1 patient
- patients with joint safety event adjudicated to RPOA Type 1 ([1]; 10 mg SC every 8 weeks): 1.4%
- patients with joint safety event adjudicated to RPOA Type 1, number ([1]; 10 mg SC every 8 weeks): 7 patients
- patients with joint safety events adjudicated to RPOA Type 2 ([1]; 10 mg SC every 8 weeks): 0.4%
- patients with joint safety events adjudicated to RPOA Type 2, number ([1]; 10 mg SC every 8 weeks): Two
- patients with subchondral insufficiency fracture ([1]; 10 mg SC every 8 weeks): 0.8%
- patients with subchondral insufficiency fracture, number ([1]; 10 mg SC every 8 weeks): Four and four
- patients with total joint replacement during study observation period, number ([1]; 10 mg SC every 8 weeks): 7 patients
- incidence of discontinuations from treatment due to an adverse event ([1]; 10 mg): 7.4%
- incidence of serious adverse events ([1]; 10 mg): 4.6%
- overall incidence of adverse events ([1]; 10 mg): 63.7%
- Primary Osteonecrosis, n (%) [1, 8]: 0 n (%)
- RPOA Type 1 [1, 8]: (1.2%)
- RPOA Type 2 [1, 8]: (0.2%)
- Subchondral Insufficiency Fracture [1, 8]: (0.4%)
- patients with joint safety event requiring adjudication ([1]; tanezumab-treated patients (5 and 10 mg combined), 80-week observation period): 2.6%
- Primary Osteonecrosis [2]: (0.1%)
- RPOA [2]: (4.8%)
- RPOA Type 1 [2]: (3.9%)
- RPOA Type 2 [2]: (0.9%)
- Subchondral Insufficiency Fracture [2]: (0.7%)
- severity of abnormal peripheral sensation adverse events [3]: mild in severity
- severity of potential sympathetic dysfunction events [3]: mild in severity
- Proportion of Patients with ≥50% Improvement in LBPI at Week 16 (Mixed BOCF/LOCF) ([4]; 5 mg SC every 8 weeks): (51.1%)
- Proportion with ≥50% Improvement in LBPI at Week 16, Difference vs. celecoxib ([4]; 5 mg SC every 8 weeks): 18.5
- Change from Baseline to Week 16 in LBPI (Multiple Imputation), LS Mean ([4]; 5 mg SC every 8 weeks, ITT): −2.91
- Change from Baseline to Week 16 in RMDQ (Multiple Imputation), LS Mean ([4]; 5 mg SC every 8 weeks, ITT): −3.85
- Change from Baseline to Week 16 in RMDQ, LS Mean Difference vs. celecoxib ([4]; 5 mg SC every 8 weeks, ITT): −0.01
- treatment differences for change from baseline to Week 56 for LBPI and RMDQ ([4]; 5 mg group relative to both the tanezumab 10 mg and the celecoxib groups): numerically larger
- Proportion of Patients with ≥50% Improvement in LBPI at Week 16 (Mixed BOCF/LOCF) ([4]; 10 mg SC every 8 weeks): (35.5%)
- Proportion with ≥50% Improvement in LBPI at Week 16, Difference vs. celecoxib ([4]; 10 mg SC every 8 weeks): 2.9
- Change from Baseline to Week 16 in LBPI (Multiple Imputation), LS Mean ([4]; 10 mg SC every 8 weeks, ITT): −2.51
- Change from Baseline to Week 16 in RMDQ (Multiple Imputation), LS Mean ([4]; 10 mg SC every 8 weeks, ITT): −4.38
- binding to NGF [5]: high specificity and affinity; also recorded: high affinity and specificity
- LBPI at week 56, LS mean difference versus tramadol ([6]; 5 mg SC every 8 weeks): −0.11
- LBPI change from Baseline to Week 2, Difference vs. plc ([6]; 5 mg SC every 8 weeks): −0.37
- LBPI change from Baseline to Week 2, LS Mean ([6]; 5 mg SC every 8 weeks): −1.54
- LBPI change from Baseline to Week 16, Difference vs. plc ([6]; 5 mg SC every 8 weeks): No statistically significant improvement
- LBPI change from Baseline to Week 16, LS Mean ([6]; 5 mg SC every 8 weeks): −2.98
- Proportion of patients with ≥50% improvement in LBPI at Week 16 ([6]; 5 mg SC every 8 weeks): (43.3) %
- RMDQ at week 56, LS mean difference versus tramadol ([6]; 5 mg SC every 8 weeks): −0.44
- RMDQ change from Baseline to Week 16, Difference vs. plc ([6]; 5 mg SC every 8 weeks): larger improvement in RMDQ versus placebo treatment
- RMDQ change from Baseline to Week 16, LS Mean ([6]; 5 mg SC every 8 weeks): −6.27
- percentage of patients achieving ≥30% improvement in LBPI at week 16 ([6]; 5 mg SC every 8 weeks): 64.8%
- ≥30% improvement in LBPI at week 16, odds ratio versus placebo ([6]; 5 mg SC every 8 weeks): 1.45
- ≥30% improvement in LBPI at week 16, odds ratio versus tramadol ([6]; 5 mg SC every 8 weeks): 1.34
- ≥50% improvement in LBPI at Week 16, OR vs. plc ([6]; 5 mg SC every 8 weeks): 1.28
- LBPI change from Baseline to Week 16, Difference vs. plc [6, 9]: −0.30
- RMDQ change from Baseline to Week 16, Difference vs. plc [6, 9]: −1.32
- LBPI at week 56, LS mean difference versus tramadol ([6]; 10 mg SC every 8 weeks): −0.21
- LBPI change from Baseline to Week 2, Difference vs. plc ([6]; 10 mg SC every 8 weeks): onset of effect at Week 2
- LBPI change from Baseline to Week 2, LS Mean ([6]; 10 mg SC every 8 weeks): −1.59
- LBPI change from Baseline to Week 16, Difference vs. plc ([6]; 10 mg SC every 8 weeks): statistically significant improvement
- LBPI change from Baseline to Week 16, LS Mean ([6]; 10 mg SC every 8 weeks): −3.08
- Proportion of patients with ≥50% improvement in LBPI at Week 16 ([6]; 10 mg SC every 8 weeks): (46.3) %
- RMDQ at week 56, LS mean difference versus tramadol ([6]; 10 mg SC every 8 weeks): −0.83
- RMDQ change from Baseline to Week 16, Difference vs. plc ([6]; 10 mg SC every 8 weeks): superior improvement in physical function
- RMDQ change from Baseline to Week 16, LS Mean ([6]; 10 mg SC every 8 weeks): −6.69
- percentage of patients achieving ≥30% improvement in LBPI at week 16 ([6]; 10 mg SC every 8 weeks): 65.5%
- ≥30% improvement in LBPI at week 16, odds ratio versus placebo ([6]; 10 mg SC every 8 weeks): 1.50
- ≥30% improvement in LBPI at week 16, odds ratio versus tramadol ([6]; 10 mg SC every 8 weeks): 1.38
- ≥50% improvement in LBPI at Week 16, OR vs. plc ([6]; 10 mg SC every 8 weeks): superior responder rate
- LBPI change from Baseline to Week 2, Difference vs. plc [6, 10]: −0.42
- LBPI change from Baseline to Week 16, Difference vs. plc [6, 10]: −0.40
- RMDQ change from Baseline to Week 16, Difference vs. plc [6, 10]: −1.74
- ≥50% improvement in LBPI at Week 16, OR vs. plc [6, 10]: 1.45
- blocking of the activity of NGF [7]: blocks the activity of NGF effectively
